Data reported in patent US10391150B2, “Treatments for migraine and related disorders” (The University of Chicago, priority 2011, dated 2019).
Read-outs that look alike come from different tables or passages of the source.

Tests used:
[1] = tested on: myelin basic protein (MBP); experiment: Myelin basic protein (MBP) Western blot in hippocampal slice cultures; format: cell-based, rat; conditions: after SD; anti-CD4 for 24 hours at 7 days in vitro; GW 4869
Procedure: FIGS. 14A-14C. Reduced myelin basic protein (MBP) from SD depends on IFN-γ/T-cell activation and sphingomylinase. […] Thus, confirming involvement of T cells.
FIGS. 15A-15C. Physiological and transient elevation [i.e., phasic (see FIG. 1)] of IFN-γ triggers completely opposite effects. Transient (i.e., 500 U/mL×12 hours; all groups n≥5) exposure of hippocampal slice cultures was nutritive when assessed seven days later.

[2] = tested on: CA3 area evoked excitability; format: cell-based, rat; conditions: H2O2 exposure
Procedure: (§1) FIGS. 11a-11g IGF-1 decreased CA3 oxidative stress (OS) and its related hyperexcitability. […] Relative evoked excitability was determined as a sum of responses seen (e.g., responses of “2” and a “3” yielded an overall excitability score of five). […] (FIGS. 11d-e) Exemplary images of control (FIG. 11d) slice culture OS compared to increased slice OS induced by exposure to menadione (FIG. 11e). Calibration bar, 200 Dotted boxes indicate CA3 areas of interest used for relative OS quantifications (f and g).

[3] = tested on: oxidative stress (OS) in hippocampal slice cultures; experiment: Oxidative stress (OS) by CellROX fluorescence in hippocampal slice cultures (CA3); format: cell-based, rat; conditions: menadione exposure, without or with acute IGF-1
Procedure: FIGS. 4A-4F Oxidative stress (OS) from SD and its reduction by IGF-1. (FIG. 4A) Normal cytoarchitecture of a hippocampal slice culture showing pyramidal neuron areas of CA1, dentate gyrus (DG), and the imaging zone for the inventors' work here (dotted line), CA3. (FIG. 4B) OS was measured using CellROX, a fixable fluorescent marker from Invitrogen. […] (FIG. 4D) This reduction versus control SD was significant (p<0.02; n=4 & 5). (FIG. 4E) CellROX can be used to measure relative OS in specific brain cell types.
FIGS. 9a-9f IGF-1 decreased oxidative stress from spreading depression. (FIG. 9a) NeuN immunohistochemical labeling of a hippocampal slice culture, for cytoarchitectural reference and to show the CA3 area of interest (dotted line box) used for quantification of oxidative stress (OS) via CellROX™ fluorescence intensity. (FIGS. 9b-c) Representative CellROX™-labeled hippocampal slices exposed to SD (FIG. 9b) and to 3-day IGF-1 incubation followed by spreading depression (SD) (FIG. 9c). Dotted line boxes illustrate CA3 areas of interest used for relative OS quantifications. […] Again, seven day treatments consisted of exposing cultures to IGF-1 for 12 hours a day for seven days. Note: IGF-1 exposure was continued for the additional 24 hour CellROX™ incubation. Scale bars=400 μm (a) and 200 μm (b and c). Comparisons between groups were made via ANOVA plus Holm-Sidak post hoc testing.
as §1
Oxidative stress from SD preferentially rises in astrocytes and microglia, with the latter effect mitigated by IGF-1 (FIG. 13). The inventors have recently shown that spreading depression (SD), the most likely cause of migraine aura and perhaps migraine (Lauritzen and Kraig, 2005), occurs with increased oxidative stress (OS) and that OS, in turn, increases SD susceptibility (Grinberg et al., 2012). Reactive oxygen and nitrogen species that cause OS have both autocrine and paracrine signaling capacities that can affect SD susceptibility by altering excitability (Kishida and Klann, 2007). Accordingly, the inventors looked for the cellular origin of OS from SD. Here the inventors used hippocampal slice cultures (HSC) to probe for cell-specific changes in OS from SD. SD was induced trans-synaptically in rat HSCs using bipolar electrical stimuli at the dentate gyrus (Pusic et al., 2011). Six SDs were induced every 7-9 min over an hr, followed by 24 hr incubation in CellROX™, a fixable fluorogenic probe for measuring OS (Grinberg et al., 2012). HSCs were then fixed in 10% buffered formalin phosphate. Other fixatives (PLP, 4% paraformaldehyde) prevented detection of OS change. Tissue was then labeled for neurons (anti-NeuN), oligodendrocytes (anti-RIP), astrocytes (anti-GFAP), or for microglia (isolectin GS-IB4).

[4] = tested on: spreading depression (SD) in hippocampal slice cultures; experiment: Spreading depression (SD) threshold / susceptibility in hippocampal slice cultures; format: cell-based, rat
Text: FIGS. 2A-2E. […] (FIG. 2A) Experiments begin with determination of the current needed to maximize standard CA3 area field potential responses. Half-maximal intensity is then used to elicit CA3 area evoked field potentials from dentate gyrus bipolar electrical stimulation. This documents the normalcy of evoked synaptic responses between preparations. If a slice's field excitatory post synaptic potentials are not at least 3 mV, slices are discarded. Next, field potential trains (i) are noted to verify that preparations are healthy enough to follow 10 Hz stimulation (e.g., amplitudes of vertical deviations in fast potential records are similar) and the current needed to trigger SD (ii) is registered (Pusic and Kraig, 2010).
(FIG. 8a) Exemplary CA3 area evoked field potential. Experiments begin with establishment of the current intensity needed to evoke maximal field potential responses; stimuli of half-maximal intensity were then used to elicit subsequent field potentials. Only those cultures with CA3 pyramidal neuron post-synaptic responses of at least 3 mV were used for experiments. (FIG. 8b) CA3 response to dentate gyrus bipolar stimulation (10 pulses at 10 Hz, 500 μA) was used to elicit a spreading depression (SD), as shown in (FIG. 8c). (FIG. 8c) The spreading depression (SD) shown here was induced by the stimulation/response (arrow) shown in (FIG. 8b). […] Comparisons between groups made via Student's t-test.
The inventors induced SD trans-synaptically in rat HSC using electrical stimuli (100 μs pulses @ 10 Hz for 1 s) ranging from 1 to 10,000 nC in order to determine SD threshold in sham and experimental groups (Pusic et al., 2011). Results were based on n≥3-6/group. […] This insulin dose approximates the pharmacological levels seen in humans treated with nasal insulin.
Slice cultures were prepared and maintained as previously described (Mitchell et al., 2010a,). After 18 days in vitro (DIV), slice cultures were transferred to serum-free media that included additional calcium and magnesium. Cultures were screened at 21 DIV to ensure no pyramidal neuron death was present. Standard electrophysiological recordings were performed by placing a slice culture insert in a PDMI recording chamber with controlled temperature and pH (FIG. 1). The recording chamber was aerated with 5% CO2-balance air at 36° C. and media flowing at 1.2 mL/min or was held static around the slice culture insert. A recording electrode was placed at the CA3 pyramidal cell layer and a stimulating electrode was placed at the surface of the dentate gyrus. Recordings were initiated prior to placing the stimulating electrode on the culture to ensure no spreading depression was triggered as a result.
Studies began with determination of the current needed to maximize standard CA3 area field potential responses. This documented the normalcy of evoked synaptic responses between preparations. If a slice's field EPSPs were not at least 3-4 mV, it was discarded.
Next, trans-synaptically evoked SD was determined. Here, the inventors stimulated slices via the dentate gyrus with 100 μs pulses delivered at 10 Hz for 1 sec every 1-2 minutes at increasing μA current intensities until SD occurred.
Slice cultures are prepared, maintained, and induced to fire SD as previously described using trans-synaptic excitation of CA3, where SD is initiated (FIG. 4) (Kunkler et al., 2005; Pusic et al., 2011).

[5] = tested on: SD in neocortex and hippocampus of anesthetized rat; experiment: SD threshold in vivo (0.5 M KCl injection) after nasal administration; conditions: acutely after nasal treatment (IGF-1 150 μg; insulin 20 μg); control 1-8 nL
Procedure: Images show experimental setups for nasal administration and testing. (FIG. 7A) Nasal injection setup showing heat lamp and thermo-regulator that maintains temperature at 37° C. plus nose cone used to deliver isoflurane anesthesia. (FIG. 7B) Operator is shown administering nasal IGF-1 solution, which is performed in a fume hood to adequately vent isoflurane from nose cone. (FIG. 7C) Image illustrates standard electrophysiology setup. Anesthetized animal is placed into a standard electrophysiology holder and anesthesia maintained by a nose cone delivering 3% isoflurane in oxygen. Arterial oxygen saturation is monitored with a pulse-oximeter. Animals are warmed to 37.5° C. with a heating plate. SD is induced by progressively injecting larger volumes of 0.5 M KCl from an 8 μm diameter microelectrode. SD is registered with a second microelectrode used for DC recordings placed more caudally. After SD is evoked by a given injection pulse, the stimulating electrode is withdrawn and a volume re-injected under mineral oil. The diameter of the resultant KCl injection sphere is then measured off line using a compound microscope and the injection volume calculated. For example, in the above whole animal experiments it took 1-8 nL of 0.5 M KCl to evoke SD in control brain regions while after acute IGF-1 this amount rose to 67-109 nL. A day after IGF-1 treatment the volume needed to evoked SD was 34-48 nL. IFN-γ treatment required 338 nL of 0.5 M KCl a day after treatment and IL-11 required 67-200 nL.
Rats (FIGS. 6 and 7) are anesthetized with inhalational isoflurane and kept warm. While anesthetized, animals are placed in a supine position and 50 μL of sterile drug (i.e., IFN-γ, IGF-1, or IL-11) solution [or sterile saline vehicle (sham control)] is administered nasally by delivering 5 μL alternating between the left and right naris every 2 min over 20 minutes. Animals are given nasal drug treatments daily at the same time for 7 days before subsequent experiments. Doses for all 3 agents begin with the effective doses noted in our work using slice cultures (1×), then include others (0.1× and 10×). The inventors base this strategy on the fact that the effective culture dose for IGF-1 (40 ng/mL) closely approximates the dose used in vivo (143 μg/kg).
This approach was applied to measurement of SD threshold (FIG. 10) after treatment (FIG. 7) with nasally administered IGF-1 (150 μg), IL-11 (1 μg), IFN-γ (50,000 units), and insulin (20 μg). […] Resistance against SD was always greater in hippocampus compared to neocortex (n=4, controls; n=3, acutely after IGF-1; n=6, one day after IGF-1; n=6, one day after IL-11; n=6, one day after IFN-γ; and n=3, acutely after insulin).
Nasal administration followed by SD threshold evaluation in vivo. Vehicle or human recombinant IGF-1 (150 μg) is administered intranasally. SD threshold is established by injection of nanoliter volumes of 0.5 M KCl into neocortex or hippocampus (−2.0 mm from Bregma and 1.5 mm lateral from midline at either 750 μm or 2,800 μm into brain, respectively) using a thin-walled glass pipette and Picospritzer. Once a threshold is established, it is confirmed two more times, with an exemplary record from a vehicle-sham animal shown below. […] The diameter of the injected sphere is then measured using a compound microscope and used to calculate the injected volume, then moles of potassium. […]

O=C(/C=C/c1ccc(/C=C/C(=O)Nc2ccc(C3=NCCN3)cc2)cc1)Nc1ccc(C2=NCCN2)cc1 [GW 4869, reference compound]
decline in MBP / demyelination after SD [1]: prevents the drop in MBP after SD

OO [hydrogen peroxide, reference compound]
evoked excitability versus control ([2]; without or with IGF-1 pretreatment for 3 days): increased slice excitability
evoked excitability versus control ([2]; without or with acute IGF-1, 30 minutes after H2O2): significantly increased evoked slice hyperexcitability
evoked excitability versus control ([2]; without or with acute IGF-1, 30 minutes after H2O2, listed as H2O2): increase in evoked excitability

CC1=CC(=O)c2ccccc2C1=O [menadione, reference compound]
OS induced by menadione versus control [3]: significant increase in slice OS

Insulin
relative SD threshold versus control (control 1.00±0.20) ([4]; 3-day exposure, insulin 400 μg/mL): 22.60±9.60
insulin dose needed for protective effect relative to IGF-1 ([4]; protection against SD in slice cultures): 15 500 fold
dose needed for protective effect against SD ([4]; slice cultures): 70 µM
volume of 0.5 M KCl needed to evoke SD [5]: 8 to 34 nL

B1: sTNFR1: soluble TNFR1 used for removal of TNF-α signaling (protein, UniProt P19438 30-211, looked up)
extracellular domain: LVPHLGDREKRDSVCPQGKYIHPQNNSICCTKCHKGTYLYNDCPGPGQDTDCRECESGSFTASENHLRHCLSCSKCRKEMGQVEISSCTVDRDTVCGCRKNQYRHYWSENLFQCFNCSLCLNGTVHLSCQEKQNTVCTCHAGFFLRENECVSCSNCKKSLECTKLCLPQIENVKGTEDSGTT
modifications: extracellular domain
notes: soluble TNFR1 used for removal of TNF-α signaling
SD-induced increased susceptibility to SD ([4]; after previous SD, soluble TNFR1 200 ng/mL after first day of SD, anti-CD4 0.1 mg/mL at 7 days for 24 hours): abrogated
